ChEMBL document CHEMBL1201862, “PubChem BioAssay data set” (2004)
Activity calls are given as the source filed them.

Assays:
[1] = NIH-3T3 fibroblast cytotoxicity, dose response, cytotoxicity control, cell-based, fluorescence, Alamar Blue, secondary assay (AID 2327); type: functional;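 note: NIH-3T3 mouse fibroblasts cultured with fluconazole at 8 µg/mL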
[2] = molecular target: Serine/threonine-protein phosphatase PP1-alpha catalytic subunit (Homo sapiens, UniProt P62136); assay: inhibition of protein phosphatase 1 activity – biochemical, fluorescence, dose response (AID 2403);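 note: phosphatase turnover of OMFP into fluorescent 3-O-methylfluorescein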
[3] = molecular target: Serine/threonine-protein phosphatase (Homo sapiens, UniProt Q9BPW0); assay: Counterscreen for inhibitors of PP1: fluorescence-based biochemical high throughput dose response assay to identify inhibitors of Protein Phosphatase 5 (PP5). [Related pubchem assays: 2034 (Summary (PP5 inhibitors)), 1987 (PP5 inhibitors in singlate), 2235 (PP1 inhibitors in singlate)]
[4] = fluconazole-exposed Candida albicans growth modulators – fluorescence, retest, confirmation (AID 2467); type: functional, cell-based
[5] = molecular target: T1, Melanin-concentrating hormone receptor 1 (Homo sapiens, UniProt Q99705); assay: Late-stage fluorescence-based counterscreen for antagonists of the G-protein coupled receptor 7 (GPR7): cell-based dose response assay to identify antagonists of the melanin-concentrating hormone receptor 1 (MCHR1). [Related pubchem assays (depositor defined):AID1861, AID1880, AID1952, AID2148, AID2251, AID2257, AID485339]; type: functional
[6] = molecular target: T2, Alkaline phosphatase, tissue-nonspecific isozyme (Homo sapiens, UniProt P05186)
T2 sequence (P05186 whole entry): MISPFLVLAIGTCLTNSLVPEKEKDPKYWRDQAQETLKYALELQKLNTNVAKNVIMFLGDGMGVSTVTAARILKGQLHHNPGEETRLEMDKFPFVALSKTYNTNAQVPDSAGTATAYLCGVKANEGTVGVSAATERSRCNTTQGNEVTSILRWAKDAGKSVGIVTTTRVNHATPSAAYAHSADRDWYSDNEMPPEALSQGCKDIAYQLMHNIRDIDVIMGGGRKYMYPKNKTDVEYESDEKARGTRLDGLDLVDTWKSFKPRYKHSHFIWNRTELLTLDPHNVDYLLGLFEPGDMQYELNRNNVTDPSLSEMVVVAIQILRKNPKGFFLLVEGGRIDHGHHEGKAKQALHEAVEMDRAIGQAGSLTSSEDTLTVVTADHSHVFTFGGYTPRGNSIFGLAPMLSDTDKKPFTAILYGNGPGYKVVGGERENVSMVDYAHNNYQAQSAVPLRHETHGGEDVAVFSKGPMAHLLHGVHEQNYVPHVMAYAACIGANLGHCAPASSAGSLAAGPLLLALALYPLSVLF

[7] = molecular target: T3, DNA repair protein RAD52 homolog (Homo sapiens, UniProt P43351); type: functional, biochemical
T3 sequence (P43351 whole entry): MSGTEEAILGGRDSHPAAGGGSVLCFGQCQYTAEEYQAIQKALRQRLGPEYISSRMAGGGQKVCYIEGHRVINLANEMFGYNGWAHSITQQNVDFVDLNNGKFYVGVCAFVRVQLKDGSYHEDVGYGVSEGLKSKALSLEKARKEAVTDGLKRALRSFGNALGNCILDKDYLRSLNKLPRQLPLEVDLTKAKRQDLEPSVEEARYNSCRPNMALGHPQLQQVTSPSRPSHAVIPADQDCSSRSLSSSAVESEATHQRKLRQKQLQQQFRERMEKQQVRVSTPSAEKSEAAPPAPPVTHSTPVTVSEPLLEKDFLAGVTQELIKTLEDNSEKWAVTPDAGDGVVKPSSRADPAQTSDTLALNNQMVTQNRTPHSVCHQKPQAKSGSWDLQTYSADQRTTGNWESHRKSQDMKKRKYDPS

[8] = molecular target: T1, Melanin-concentrating hormone receptor 1; assay: Fluorescence-based counterscreen for antagonists of the G-protein coupled receptor 7 (GPR7): cell-based high throughput dose response assay to identify antagonists of the melanin-concentrating hormone receptor 1 (MCHR1).; type: functional
[9] = molecular target: Acyl-homoserine lactone acylase PvdQ (Pseudomonas aeruginosa (strain LESB58), UniProt Q9I194); assay: PvdQ acylase enzyme activity blockers – biochemical, fluorescence, plate reader and imaging, cherry-picks, dose response (AID 493231)
[10] = molecular target: Induced myeloid leukemia cell differentiation protein Mcl-1 (Homo sapiens, UniProt Q07820); type: functional
[11] = molecular target: C-C chemokine receptor type 6 (Homo sapiens, UniProt P51684); assay: antagonism of CCR6 beta-arrestin recruitment – cell-based, luminescent beta-arrestin readout, dose response (AID 504728); type: functional
[12] = molecular target: Eukaryotic translation initiation factor 4E (Mus musculus, UniProt P63073); assay: blockers of eIF4G binding by eIF4E – biochemical, TR-FRET, dose response (AID 855); type: functional;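 note: potency for disrupting eIF4E binding to eIF4GI seen as loss of FRET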
[13] = molecular target: Beta-galactosidase (Escherichia coli, UniProt Q8VNN2); assay: detection-enzyme interference by beta-gal modulators – biochemical, E. coli enzyme, set 3, artefact control for CCR6 antagonist project, dose response (AID 504712); type: functional
[14] = HEK-293T cell viability reduction – luminescence, B-cell screen hits, cytotoxicity control for BCR NF-kB inhibitor project, dose response (AID 489021); type: functional, cell-based;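 note: HEK-293T cells carrying an NF-kB luciferase reporter; cells exposed to compound for about 14 hours before viability readout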
[15] = molecular target: T4, Cytochrome P450 2D6 (Homo sapiens, UniProt P10635)
[16] = molecular target: Neuropeptide Y receptor type 2 (Homo sapiens, UniProt P49146); assay: Fluorescence-based counterscreen for agonists of NPY-Y1: cell-based high-throughput dose response assay for agonists of NPY-Y2.; type: functional
[17] = test system: HEK293; assay: Fluorescence-based counterscreen for potentiators or agonists of NPY-Y1: cell-based high-throughput dose response assay for inhibitors of cyclic nucleotide gated ion channel (CNGC) activity. In this assay, the parental HEK293 cell line transfected with a cyclic-nucleotide gated ion channel (CNGC)-based cAMP sensor is used to measure inhibition of isoproterenol-induced CNGC …; type: functional; settings: Homo sapiens
[18] = molecular target: Neuropeptide Y receptor type 1 (Homo sapiens, UniProt P25929); assay: Fluorescence-based dose response cell-based high-throughput screening assay for agonists of NPY-Y1. [Related pubchem assays: 1697 (Screening assay (NPY-Y1 agonists).), 1359 (Screening assay (NPY-Y2 potentiators or agonists).), 1304 (Screening assay (NPY-Y1 potentiators or agonists).), 1704 (Screening assay (CNGC inhibitors).), 1791 (Summary AID.)]; type: functional
[19] = molecular target: Estrogen receptor beta (Homo sapiens, UniProt Q92731);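 note: recombinant ER-beta bound to coactivator SRC1 peptide in presence of estradiol agonist; inhibitors block coactivator peptide binding and lower the FRET signal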
[20] = molecular target: Bcl-2-like protein 10 (Homo sapiens, UniProt Q9HD36); assay: Bcl-B/TR3 peptide binding disruption – biochemical, fluorescence polarization, FITC-TR3 peptide, selectivity assay for Bfl-1 inhibitor project, primary screen (AID 748);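 note: fluorescence polarization from a fluorescein-labelled TR3 peptide binding purified Bcl-B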
[21] = molecular target: T4, Cytochrome P450 2D6; assay: qHTS Assay for Inhibitors and Substrates of Cytochrome P450 2D6. [Related pubchem assays: 410 ]; type: ADME; settings: read-out: Potency
[22] = molecular target: T5, Hexokinase HKDC1 (Homo sapiens, UniProt Q2TB90); assay: inhibition of HKDC1 glucose phosphorylation – biochemical, W721R variant, dose response (AID 504729); type: functional
T5 sequence (Q2TB90 whole entry): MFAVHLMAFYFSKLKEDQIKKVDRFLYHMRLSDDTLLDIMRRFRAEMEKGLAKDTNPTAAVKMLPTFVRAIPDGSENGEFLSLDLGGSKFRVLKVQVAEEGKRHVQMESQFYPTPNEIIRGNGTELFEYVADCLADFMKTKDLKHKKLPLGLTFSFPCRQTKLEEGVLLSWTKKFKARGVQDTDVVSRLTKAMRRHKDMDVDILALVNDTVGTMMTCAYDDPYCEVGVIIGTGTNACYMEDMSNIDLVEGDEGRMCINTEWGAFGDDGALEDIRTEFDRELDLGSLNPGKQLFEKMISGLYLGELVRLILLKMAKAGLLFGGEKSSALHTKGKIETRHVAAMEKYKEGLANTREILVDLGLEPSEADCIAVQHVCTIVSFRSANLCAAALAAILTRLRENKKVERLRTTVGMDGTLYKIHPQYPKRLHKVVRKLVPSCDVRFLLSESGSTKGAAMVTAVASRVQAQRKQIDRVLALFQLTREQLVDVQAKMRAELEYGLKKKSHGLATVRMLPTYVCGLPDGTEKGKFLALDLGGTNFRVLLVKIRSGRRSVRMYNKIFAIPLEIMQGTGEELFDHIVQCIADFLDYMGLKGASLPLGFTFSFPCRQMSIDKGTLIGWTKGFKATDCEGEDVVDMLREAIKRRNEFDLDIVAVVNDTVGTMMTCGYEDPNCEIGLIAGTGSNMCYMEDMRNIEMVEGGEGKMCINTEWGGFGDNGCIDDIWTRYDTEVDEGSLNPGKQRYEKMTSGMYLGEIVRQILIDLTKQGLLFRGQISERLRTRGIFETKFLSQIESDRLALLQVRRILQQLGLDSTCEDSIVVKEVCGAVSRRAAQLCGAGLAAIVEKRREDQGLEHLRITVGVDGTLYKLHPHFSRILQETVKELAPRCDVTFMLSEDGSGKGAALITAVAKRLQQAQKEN

[23] = molecular target: X-box-binding protein 1 (Homo sapiens, UniProt P17861); type: functional, Cricetulus griseus;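 note: confirmatory dose-response counter-screen serving a CHOP assay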
[24] = molecular target: T6, Eukaryotic translation initiation factor 2-alpha kinase 3 (Homo sapiens, UniProt Q9NZJ5); assay: Dose response cell-based high-throughput screening assay to measure PERK inhibition. [Related pubchem assays: 1416 ]; type: functional
[25] = molecular target: T6, Eukaryotic translation initiation factor 2-alpha kinase 3; assay: Counterscreen assay for PERK inhibitors: Dose response cell-based high throughput screening assay to measure inhibition of PERK at 6 hours. [Related pubchem assays: 1522, 1416 ]; type: functional
[26] = HGIII-sPLA2 enzyme inhibition potency – biochemical, QFRET, IC50, dose response (AID 743457);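 note: green fluorescence rise as the enzyme cleaves BODIPY PC-A2 in liposomes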
[27] = molecular target: Cystic fibrosis transmembrane conductance regulator/Golgi-associated PDZ and coiled-coil motif-containing protein (Homo sapiens, UniProt P13569+Q9HD26); assay: potency against CAL PDZ-peptide interaction – biochemical, fluorescence polarization, Cerulean-tagged CAL PDZ, cherry-picks, dose response (AID 504773)
[28] = molecular target: Glucose-6-phosphate 1-dehydrogenase (Homo sapiens, UniProt P11413); assay: inhibition of Homo sapiens G6PD, dose series – biochemical, fluorescence, selectivity assay for P. falciparum G6PD inhibitor project, dose response (AID 504792); type: functional
[29] = molecular target: Heat shock protein HSP 90-alpha (Homo sapiens, UniProt P07900); type: functional, organism-based
[30] = molecular target: Nonstructural protein 1 (Influenza A virus, UniProt Q194T2); type: functional, Influenza A virus (A/California/07/2009(H1N1))
[31] = molecular target: Lysosomal acid glucosylceramidase (Homo sapiens, UniProt P04062); assay: Dose response cell-based high throughput screening assay to identify enhancers of beta-glucosidase activity. [Related pubchem assays: 784 ]; type: functional
[32] = cells; type: functional
[33] = molecular target: Metabotropic glutamate receptor 4 (Rattus norvegicus, UniProt P31423); assay: Modulation of the Metabotropic Glutamate Receptor mGluR4: Rat PAM Potency. [Related pubchem assays (depositor defined):AID2437, AID2807]; type: functional

## COc1cnc(-c2ccccn2)nc1Sc1cccc(Cl)c1
[1]
  EC50: > 160 µM (inactive)
[2]
  IC50: 4.75 µM (active)
[3]
  IC50: > 67 µM (not active)
[4]
  EC50: > 38 µM (not active)

## Cc1ccc(-n2ncc(Cl)c(OC3CCN(C(=O)OC(C)(C)C)CC3)c2=O)cc1
[5]
  IC50: 5 µM (active)

## CN(C)CCCN(C(=O)c1ccco1)c1nc2ccc(Br)cc2s1
[6]
  EC50: > 100 µM (not active)
[7]
  AC50: 14.1 µM (active)

## CCC(C)CCN1C(Nc2ccccc2)=NC[C@@H]1Cc1ccccc1 (stereo partly drawn)
[8]
  IC50: 12.5 µM (not active)

## OC(c1cccc(Cl)c1)c1nccc2ccccc12 (stereo not drawn)
[9]
  AC50: 7.66 µM (active)

## COc1ccc(N2C(=O)/C(=C/C=C/c3ccccc3[N+](=O)[O-])C(=O)NC2=S)cc1
[10]
  IC50: 730 nM (active)
[11]
  IC50: > 66.6 µM (inactive)
[12]
  IC50: 50 µM (inactive)
[13]
  IC50: > 66.6 µM (inactive)

## CCOc1ccc(-n2c(SCC(=O)Nc3ccc4c(c3)OCCO4)nc3c(c2=O)SCC3)cc1
[14]
  IC50: > 80 µM (inactive)
[15]
  AC50: 8.91 µM (inconclusive)

## COc1ccc(Nc2oc(/C=C3/SC(=S)N(CC4CCCO4)C3=O)nc2C#N)cc1 (stereo not drawn)
[16]
  EC50: 12.8 µM (not active)
[17]
  IC50: 11.8 µM (not active)
[18]
  EC50: 13.5 µM (not active)

## c1coc(-c2nn3c(-c4ccco4)nnc3s2)c1
[19]
  IC50: 24 µM (active)
[20]
  IC50: 86.5 µM (inactive)

## C=CCc1cccc(C2C(C)CCC3C(=O)N4C(Cc5c([nH]c6ccccc56)C4c4cc(OC)c(OC)c(OC)c4)C(=O)N32)c1 (stereo not drawn)
[21]
  AC50: 3.98 µM (inconclusive)

## CCOC(=O)c1ccc(NC(=O)CSc2n[nH]c(-c3ccncc3)n2)cc1
[22]
  IC50: 12.1 µM (active)

## C/N=C1\SC(CC(=O)Nc2ccc(F)cc2F)C(=O)N1/N=C/c1ccc(OC(F)F)c(OC)c1 (stereo not drawn)
[23]
  Absolute IC50 (XBP1): 10 µM

## Cc1ccc(C)c(OCC(=O)Nc2cc(C(=O)O)cc(C(=O)O)c2)c1
[24]
  EC50: > 55.7 µM (not active)
[25]
  EC50: > 55.7 µM (not active)

## COc1ccc2c(c1)c(=Cc1ccc(N(C)C)cc1)c1cc(-c3ccccc3)[n+](C)n12
[26]
  IC50: > 40.6 µM (inactive)
[27]
  AC50: > 56 µM (inactive)
[28]
  IC50: 74.7 µM (inactive)
[29]
  AC50: 3.93 µM (active)
[30]
  IC50: 4.56 µM (active)

## CCCCSc1nnc(-c2ccc(C)cc2)o1
[31]
  EC50: > 50 µM (not active)
[32]
  IC50: 39 µM (active)

## O=C(Nc1ccc(N2C(=O)CCC2=O)c(Cl)c1)c1ccccn1
[33]
  EC50: 6.89 µM (active)
